Data on 2 compounds can be found in patent US6025375A, “4,5-diaryloxazole derivatives” (Fujisawa Pharmaceutical Co., Ltd., priority 1993, dated 2000).

Experiment [1] concerns human platelet aggregation induced by ADP. Description: Inhibition of human platelet aggregation induced by ADP. The note with it: 3.2 × 10^-7 M, platelet rich plasma, ADP 2.5 μM, mean ± S.E. In kind it is cell-based. As to the method:
i) Inhibition of human platelet aggregation induced by ADP
Isomer C obtained in Example 2.
Human blood was obtained from healthy volunteers and mixed with 1/10 volume of 3.8% sodium citrate, pH 7.4. The citrate blood was centrifuged at 150×g for 10 minutes and the platelet rich plasma (PRP) was removed. The remaining blood was centrifuged for a further 10 minutes at 1500×g to prepare the platelet poor plasma (PPP), which was used as a reference for platelet aggregation. Aggregation studies were carried out using HEMATRACER 801 (NBS, Japan), a 8 channel aggregometer. 25 μl sample solution and 225 μl of PRP were mixed and stirred at 1000 rpm for 2 minutes at 37° C. Aggregation was induced by ADP solution at the final concentration of 2.5 μM.

The subject of experiment [2] is mean arterial blood pressure. The experiment can be described thus: Effect on mean arterial blood pressure in conscious rats. In kind it is in vivo. As to conditions: 3.2 mg/kg, orally, suspended in 0.5% methyl cellulose; conscious male Sprague-Dawley rats. As to the method:
ii) Effect on mean arterial blood pressure in conscious rats
Sodium [3-[[(1S)-2-(4,5-diphenyloxazol-2-yl)-2-cyclohexen-1-yl]methyl]phenoxy]acetate
Male Sprague-Dawley rats, aged 8-9 weeks, were anesthetized with diethyl ether and a polyethylene cannula filled with heparin solution was inserted into the femoral artery of the rats to measure mean blood pressure. Mean blood pressure was measured with a pressure transducer and recorded on a polygraph. Two hours after operation, the test compound suspended in 0.5% methyl cellulose was administered orally in a volume of 5 ml/kg. Oral hypotensive effect of the test compound was expressed as the maximal decrease (R max). Briefly, R max was expressed as maximal % change compared to mean blood pressure prior to the administration of the test compound.

The inhibition is the drop in the measured response relative to a control, in per cent. Regarding `O=C(O)COc1cccc(CC2CCCCC2c2nc(-c3ccccc3)c(-c3ccccc3)o2)c1` (single isomer, unassigned) [Isomer C, cis- or trans-1-[(3-carboxymethoxyphenyl)methyl]-2-(4,5-diphenyloxazol-2-yl)cyclohexane], the inhibition at 0.32 µM in experiment [1] was found to be 100 ± 0.4%.

Regarding `O=C(O)COc1cccc(C[C@@H]2CCCC=C2c2nc(-c3ccccc3)c(-c3ccccc3)o2)c1` [(+)-Sodium [3-[[(1S)-2-(4,5-diphenyloxazol-2-yl)-2-cyclohexen-1-yl]methyl]phenoxy] acetate], the “R max (%): maximal % change (decrease) in mean blood pressure compared to that prior to administration” value in experiment [2] was found to be 31.3%.
